In US7629471B2, “Transcriptional factor, process for producing the same and use thereof” (NRL Pharma, Inc., priority 2003, dated 2009):
“And” between values parts separate entries of the source, which are not always exact repeats. Equal entries are not always repeated. Where two headings read alike, the source gives them in different places. Marks after values point to notes of the source that are not given here.

Legend:
[1] = cited from earlier work
[2] = test system: arthritis in rats induced by adjuvant injection; conditions: adjuvant injection into footpads; cited from earlier work
[3] = test system: Ras farnesylation; conditions: cited from earlier work
[4] = test system: animal virus; conditions: without affecting nucleic acid and protein biosynthesis; cited from earlier work
[5] = test system: mice starved for a 48-hour period; conditions: trace amount by oral route 2 hours before feed intake; 2-hour intake time; mice starved 48 hours; cited from earlier work
[6] = test system: rodents; conditions: rodents (mice, rats); cited from earlier work
[7] = test system: Male ICR mice; assay: Effect on serum total cholesterol: in-feed vs forced oral administration (Table 1); format: in vivo; conditions: 1 week, n = 6, tested in triplicate
Source text: In contrast, the solubility of Compound-1 in water is as extremely low as about 0.7 g/l; Compounds-1 and -2 are poles apart in terms of solubility in water. […] However, even when both compounds are simply mixed in a mechanical manner into feed in an amount of 0.1% or even when both compounds are given for forced oral administration in the same drug amount calculated from feed intake, there is no reproducibility in their efficacy unlike the case where their acetone solutions are sprayed over feed.

[8] = test system: hypertensive rat models; conditions: cited from earlier work
[9] = test system: db/db mice; assay: Urinary sugar excretion in db/db mice: in-feed vs forced oral administration (Table 1); format: in vivo; conditions: for % Reduction of urinary sugar excretion: n = 4, tested in triplicate
[10] = Solubility in water
[11] = test system: ICR male mice; format: in vivo; conditions: added at 0.1% to feed, 1 week; control group 143
Source text: Fifty ICR male mice (5 weeks of age) were randomly divided into 5 groups of 10 animals each and housed in polycarbonate cages at 5 animals per cage. […] […] After 1 week, the blood was collected from the heart of each mouse to determine the level of serum total cholesterol by an enzymatic method.

[12] = test system: C57BL/ksj db/db mice; assay: Effect on genetically obese diabetic mice: urinary sugar excretion (Example 6); format: in vivo
Method: A solution of Compound-16 (1 g) in acetone (about 50 ml) was sprinkled over and mixed well with 1 kg of rodent standard feed (CE-2, CLEA Japan, Inc., Japan), followed by air-drying in a chamber. The content of Compound-16 in this feed was about 0.1%. In the same manner, pellet chow samples containing 0.05% to 0.025% of Compound-16 were prepared and used for the experiment. To prepare control feed, the same powder feed was sprinkled with acetone and palletized. Twenty male db/db mice (8 weeks of age after birth) were randomly divided into 4 groups. Each group was housed in a cage for urine collection and fed with the Compound-16-containing feed or the control feed for 21 days. During the housing, the mice were allowed to take feed and water ad libitum and their urine was collected at the intervals indicated in Table 1 to determine urinary sugar excretion by an enzymatic method. The level of urinary sugar excretion was expressed as the mean per animal.

[13] = test system: rodents; conditions: cited from earlier work
[14] = target: T1, aromatase (Homo sapiens, UniProt P11511); conditions: cited from earlier work
T1 sequence (P11511 1-503): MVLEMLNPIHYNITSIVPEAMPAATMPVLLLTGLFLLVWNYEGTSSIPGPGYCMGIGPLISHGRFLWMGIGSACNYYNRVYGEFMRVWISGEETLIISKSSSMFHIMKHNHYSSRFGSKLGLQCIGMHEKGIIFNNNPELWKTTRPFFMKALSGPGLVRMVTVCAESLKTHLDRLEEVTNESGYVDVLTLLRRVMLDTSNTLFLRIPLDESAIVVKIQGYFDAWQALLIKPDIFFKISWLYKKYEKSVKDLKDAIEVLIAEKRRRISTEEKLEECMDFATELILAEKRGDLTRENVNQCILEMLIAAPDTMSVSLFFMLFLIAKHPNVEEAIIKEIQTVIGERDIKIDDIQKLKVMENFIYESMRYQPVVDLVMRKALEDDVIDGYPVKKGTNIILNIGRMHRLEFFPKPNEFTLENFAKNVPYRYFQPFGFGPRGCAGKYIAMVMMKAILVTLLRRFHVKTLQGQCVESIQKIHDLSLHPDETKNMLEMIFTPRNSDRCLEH

[15] = Mechanical mixing into feed, 0.1%
[16] = Spraying of acetone solution over feed, 0.1% in feed

Compound: CC(C=C[C@]1(C)[C@H](C)C(=O)CC[C@@H]1C)=CCc1c(O)c(Cl)c(C)c(C=O)c1O [Ascochlorin, 3-[5-[1(R),2(S),6(S)-trimethyl-3-oxocyclohexyl]-3-methyl-2,4-pentadienyl]-2,4-dihydroxy-5-chloro-6-methylbenzaldehyde]
- Absorption from the digestive tract ([1]; in vivo, po): most of them pass through the digestive tract without being absorbed
- Inflammatory swelling [2]: alleviating inflammatory swelling
- Inhibition of Ras farnesylation [3]: inhibited Ras farnesylation
- Animal virus growth [4]: arrests animal virus growth
- Anorectic effect (feed intake) [5]: half inhibition of feed intake
- Serum cholesterol lowering [6]: effect of lowering serum cholesterol

Compound: COc1c(Cl)c(C)c(C=O)c(O)c1C/C=C(C)/C=C/[C@@]1(C)[C@H](C)CCC(=O)[C@@H]1C [Compound-1, 4-O-methylascochlorin]
- Decrease in serum cholesterol levels ([7]; Forced oral administration, same drug amount calculated from feed intake): No decrease in all three
- Decrease in serum cholesterol levels [7, 15]: No decrease in all three tests
- Decrease in serum cholesterol levels [7, 16]: 15.2%-25.1% decrease, P < 0.01
- Absorption from the digestive tract ([1]; orally administered to small animals (rats, mice) in the fasting state): most of them pass through the digestive tract without being absorbed
- Progression to renal failure [8]: prevent hypertensive rat models from entering renal failure
- % Reduction of urinary sugar excretion [9, 15]: No inhibitory effect is observed
- Solubility in water [10]: about 0.7 g/l
- Solubility in water (in words) [10]: substantially insoluble in water

Compound: CC(C=CC1(C)C(C)CCC(=O)C1C)=CCc1c(O)c(C=O)c(C)c(Cl)c1OCC(=O)O (centres unmarked) [Compound-2, 4-O-carboxymethylascochlorin]
- Decrease in serum cholesterol levels [7, 16]: 17.5%-22.7% decrease, P < 0.01
- Toxic death ([9]; Forced oral administration, db/db mice, deaths/animals in first, second, third test): 2/4 in the first test and 1/4 in the second test and 1/4 in the third test
- % Reduction of urinary sugar excretion ([9]; Forced oral administration): Not effective
- Body weight gain ([9]; Mechanical mixing into feed, db/db mice): body weight gain is inhibited.
- Amount dissolved in water ([10]; in the small intestine (pH 7.2 to 7.4)): ≥ 6%

Compound: CC(/C=C/[C@@]1(C)[C@H](C)CCC(=O)[C@@H]1C)=C\Cc1c(O)c(Cl)c(C)c(C=NCC(N)=O)c1O [Compound-13]
- Serum total cholesterol [11]: 112** mg/dl

Compound: CC(=O)N[C@@H](CCCCN=Cc1c(C)c(Cl)c(O)c(C/C=C(C)/C=C/[C@@]2(C)[C@H](C)CCC(=O)[C@@H]2C)c1O)C(=O)O [Compound-16]
- Level of urinary sugar excretion ([12]; 0.025% in feed, 0 days (24 h urine beginning 1 day before initiation, baseline)): 890 mg/mouse/day
- Level of urinary sugar excretion ([12]; 0.025% in feed, 1 day): 600 mg/mouse/day
- Level of urinary sugar excretion ([12]; 0.025% in feed, 3 days): 452 mg/mouse/day
- Level of urinary sugar excretion ([12]; 0.025% in feed, 7 days): 175 mg/mouse/day
- Level of urinary sugar excretion ([12]; 0.025% in feed, 14 days): 201 mg/mouse/day
- Level of urinary sugar excretion ([12]; 0.025% in feed, 21 days): 134 mg/mouse/day
- Level of urinary sugar excretion ([12]; 0.05% in feed, 0 days (24 h urine beginning 1 day before initiation, baseline)): 786 mg/mouse/day
- Level of urinary sugar excretion ([12]; 0.05% in feed, 1 day): 541 mg/mouse/day
- Level of urinary sugar excretion ([12]; 0.05% in feed, 3 days): 231 mg/mouse/day
- Level of urinary sugar excretion ([12]; 0.05% in feed, 7 days): 253 mg/mouse/day
- Level of urinary sugar excretion ([12]; 0.05% in feed, 14 days): 170 mg/mouse/day
- Level of urinary sugar excretion ([12]; 0.05% in feed, 21 days): 52 mg/mouse/day
- Level of urinary sugar excretion ([12]; 0.1% in feed, 0 days (24 h urine beginning 1 day before initiation, baseline)): 814 mg/mouse/day
- Level of urinary sugar excretion ([12]; 0.1% in feed, 1 day): 187 mg/mouse/day
- Level of urinary sugar excretion ([12]; 0.1% in feed, 3 days): 30 mg/mouse/day
- Level of urinary sugar excretion ([12]; 0.1% in feed, 7 days): 15 mg/mouse/day
- Level of urinary sugar excretion ([12]; 0.1% in feed, 14 days): 10 mg/mouse/day
- Level of urinary sugar excretion ([12]; 0.1% in feed, 21 days): 10 mg/mouse/day

Compound: CC(=O)N[C@@H](CCCCN=Cc1c(C)c(Cl)c(OCC(=O)O)c(C/C=C(C)/C=C/[C@@]2(C)[C@H](C)CCC(=O)[C@@H]2C)c1O)C(=O)O [Compound-19]
- Serum total cholesterol [11]: 95** mg/dl

Compound: C/C(=C\Cc1c(O)c(Cl)c(C)c(C=O)c1O)CC/C=C(\C)[C@@H]1CC(=O)C(C)(C)O1 [ascofuranone]
- Progression to renal failure [8]: prevent hypertensive rat models from entering renal failure
- Anticancer effect [13]: anticancer effect
- Serum cholesterol lowering [6]: serum cholesterol-lowering effect

Compound: CC(/C=C/[C@@]1(C)[C@H](C)C=CC(=O)[C@@H]1C)=C\Cc1c(O)c(Cl)c(C)c(C=O)c1O [cylindrochlorin]
- Aromatase inhibition [14]: strong inhibitory substance
- Serum cholesterol lowering [6]: stronger effect of lowering serum cholesterol
